Reference: patent US5451599A, “Complex salts of hematoporphyrin and of its derivatives, their synthesis, and therapeutic agent” (Wojskowa Akademia Techniczna im. Jaroslawa Dabrowskiego, priority 1991, dated 1995)

Legend:
[1] = test system: transplanted mammary gland cancer; assay: survival of C3H mice with transplanted mammary gland cancer, with and without He-Ne laser irradiation (FIG. 6); type: in vivo; conditions: 10 mg/kg body weight; with or without He-Ne laser 150 J/cm^2
Procedure: FIG. 6 is a graph showing the survival rate of C3H mice with transplanted mammary gland cancer after administration of compounds of the invention (with and without irradiation) and a control.
The new compounds were also studied in animals.
In animal studies, C3H mice with transplanted mammary gland cancer were administered both above-mentioned compounds in a dose of 10 mg/kg body weight, in two variants: mice irradiated with He-Ne laser in a dose of 150 J/cm^2 /in FIG. 6, marked by the letter L next to the symbol of the compound/and not irradiated ones. The results are recorded in the Figure.

[2] = test system: Hela (cervix uteri cancer cells); assay: 48 h incubation with the salts: cell fluorescence, living cells, multiplication coefficient (Table 1); type: cell-based, Human; conditions: 48 hs, 50 mcg/ml
Procedure: (§1) New compounds of formula 1 were tested on cell lines. Use was made of 9 different neoplastic cell lines which were incubated for 48 hs with various new salts of protoporphyrin and with a new salt of the conventionally applied HpD preparation/hematoporphyrin derivatives/obtained according to Lipson et al. All compounds were used in the form of aqueous solutions, at a concentration of 50 mcg/ml. Determination was made of:
(§2) 1/ Cell fluorescence /F/: after 48 hs incubation, the cells were washed away, the intensity of fluorescence was measured in a fluorescence microscope and was expressed on an arbitrary scale of 0-4 scores;
(§3) 2/ Percentage of living cells /P %/ after 48 hs incubation;
(§4) 3/ Cell multiplication coefficient /M/ in the presence of different preparations, expressed as: [formula]

[3] = test system: Mm (Mm5MT/C1, mammary gland cancer cells of C3H-strain mice); assay: 48 h incubation with the salts: cell fluorescence, living cells, multiplication coefficient (Table 3); type: cell-based, Murine
Procedure: as §1, §2, §3, §4
mammary gland cancer cells of C3H-strain mice

[4] = test system: T-47D (breast cancer cells); assay: as above; type: cell-based, Human; conditions: 48 hs, 50 mcg/ml
Procedure: as §1, §2, §3, §4
T-47D breast cancer cells

[5] = test system: KB (oral cavity cancer cells); assay: 48 h incubation with the salts: cell fluorescence, living cells, multiplication coefficient (Table 2); type: cell-based, Human; conditions: 48 hs, 50 mcg/ml
Procedure: as §1, §2, §3, §4
KB oral cavity cancer cells

[6] = test system: HEp-2 (larynx cancer cells); assay: 48 h incubation with the salts: cell fluorescence, living cells, multiplication coefficient (Table 3); type: cell-based, Human; conditions: 48 hs, 50 mcg/ml
Procedure: as §1, §2, §3, §4
Hep-2 larynx cancer cells

[7] = test system: GR (GRMT/F6, mammary gland cancer cells of GR-strain mice); assay: 48 h incubation with the salts: cell fluorescence, living cells, multiplication coefficient (Table 2); type: cell-based, Murine; conditions: 48 hs, 50 mcg/ml
Procedure: as §1, §2, §3, §4
GRMT/F6 mammary gland cancer cells of GR-strain mice

[8] = test system: HBT-39/w (breast cancer cells); assay: as above; type: cell-based, Human; conditions: 48 hs, 50 mcg/ml
Procedure: as §1, §2, §3, §4

[9] = test system: MA-104 (Rhesus monkey embryo kidney cancer cells); assay: 48 h incubation with the salts: cell fluorescence, living cells, multiplication coefficient (Table 1); type: cell-based; conditions: 48 hs, 50 mcg/ml
Procedure: as §1, §2, §3, §4

[10] = test system: CL; assay: as above; type: cell-based; conditions: 48 hs, 50 mcg/ml
Procedure: as §1, §2, §3, §4

[11] = test system: PZ; assay: as above; type: cell-based; conditions: 48 hs, 50 mcg/ml
Procedure: as §1, §2, §3, §4

CC1=C(CCC(=O)O)c2cc3[nH]c(cc4nc(cc5[nH]c(cc1n2)c(C(C)NC(CCCCN)C(=O)O)c5C)C(C(C)NC(CCCCN)C(=O)O)=C4C)c(C)c3CCC(=O)O.N=C(N)NCCC[C@H](N)C(=O)O.N=C(N)NCCC[C@H](N)C(=O)O (stereo not drawn) [PP/Lys/2 /Arg/2, l-arginine di/N-lysyl/-protoporphyrinate]
mice survival [1]: most active, greatly prolonging mice survival | Cell fluorescence /F/ [2]: +++ | Cell multiplication coefficient /M/ [2]: 0,16 | Percentage of living cells /P %/ [2]: 16% | Cell fluorescence /F/ ([3]; Mm, 48 hs, 50 mcg/ml): ++ | Cell multiplication coefficient /M/ ([3]; Mm, 48 hs, 50 mcg/ml): 0,80 | Percentage of living cells /P %/ ([3]; Mm, 48 hs, 50 mcg/ml): 33% | activity in studies of the Mm5MT/C1 cell line (in words) ([3]; mammary gland cancer of C3H mice): one of the most active ones | Cell fluorescence /F/ [4]: ++ | Cell multiplication coefficient /M/ [4]: 0,92 | Percentage of living cells /P %/ [4]: 57% | Cell fluorescence /F/ [5]: - | Cell multiplication coefficient /M/ [5]: 0,12 | Percentage of living cells /P %/ [5]: 12% | Cell fluorescence /F/ [6]: ++ | Cell multiplication coefficient /M/ [6]: 0,42 | Percentage of living cells /P %/ [6]: 10% | Cell fluorescence /F/ [7]: +++ | Cell multiplication coefficient /M/ [7]: 0,75 | Percentage of living cells /P %/ [7]: 25% | Cell fluorescence /F/ [8]: ++++ | Cell multiplication coefficient /M/ [8]: 0,44 | Percentage of living cells /P %/ [8]: 47% | Cell fluorescence /F/ [9]: - | Cell multiplication coefficient /M/ [9]: 0,10 | Percentage of living cells /P %/ [9]: 0% | Cell fluorescence /F/ [10]: + | Cell multiplication coefficient /M/ [10]: 0,30 | Percentage of living cells /P %/ [10]: 30% | Cell fluorescence /F/ [11]: + | Cell multiplication coefficient /M/ [11]: 0,50 | Percentage of living cells /P %/ [11]: 50%
